Test results published in publication PMC8097418, “In Vitro and In Vivo Antibacterial Activities of a Novel Quinolone Compound, OPS-2071, against Clostridioides difficile” (Antimicrobial Agents and Chemotherapy, 2021).
In brackets after ≈: the same amount, converted by molar mass. Where two headings read alike, the source gives them in different places.

Tests used:
Assay type in all cases: cell-based, Clostridioides difficile
[1] = test system: 54 clinically isolated C. difficile strains; experiment: MIC by agar dilution against 54 clinically isolated strains
Protocol: MICs obtained using the agar dilution method were determined visually as described for the CLSI method ([41], [42]). MICs obtained using the broth dilution method were determined visually based on the CLSI method except for using Gifu anaerobic medium (GAM) broth instead of supplemented Brucella broth ([41], [42]).

[2] = test system: C. difficile ATCC 700057; experiment: Killing kinetics (time-kill curves)
Protocol: The test tubes were incubated for 48 h. The CFU/ml values of the bacterial suspensions were calculated at 0, 2, 4, 6, 24, and 48 h by culturing 0.1-ml samples of serial 10-fold dilutions on GAM agar plates at 37°C under anaerobic conditions and then counting the number of growing colonies. The CFU/ml value at each time point is from one sample of datum.

[3] = test system: 10 clinical isolates of C. difficile; experiment: MIC (broth dilution) and MBC testing, 10 clinical isolates; settings: 10 clinical isolates
Protocol: In this test, MIC testing was performed using the broth dilution method as recommended in the CLSI ([41]). After the MICs were determined, 10 μl of the bacterial suspension from the MIC test tube was inoculated onto agar plates and incubated at 37°C. The bacterial colonies were then counted and bacterial numbers were calculated. The MBC was considered to be the lowest concentration of the antibiotics that prevented growth and reduced the inoculum by >99.9% within 48 h, irrespective of counts of survivors at higher antibiotic concentrations.

[4] = test system: C. difficile ATCC 700057
[5] = test system: C. difficile ATCC 43255; experiment: MIC against the infection strain

With `Cc1c(-c2cnc(N)c(C#N)c2)c(F)cc2c(=O)c(C(=O)O)cn(C3CC3)c12` [OPS-2071, 7-(6-amino-5-cyanopyridin-3-yl)-1-cyclopropyl-6-fluoro-8-methyl-4-oxo-1,4-dihydroquinoline-3-carboxylic acid] the “MIC50 fold higher than that of fidaxomicin” value ([1]; 54 clinical isolates) was 2 fold, the “MIC50 fold lower than those of vancomycin and metronidazole” value ([1]; 54 clinical isolates) was 16 fold and the “MIC90 fold lower than that of fidaxomicin” value ([1]; 54 clinical isolates) was 16 fold. For the same compound, the “MIC90 fold lower than those of vancomycin and metronidazole” value ([1]; 54 clinical isolates) was 8 fold, the MIC range ([1]; 54 clinically isolated C. difficile strains) was 0.016 to 1 µg/mL and the MIC50 ([1]; Clostridioides difficile) was 0.125 µg/mL (≈ 0.33 µM). For the same compound, the MIC90 ([1]; Clostridioides difficile, 54 clinically isolated C. difficile strains) was 0.5 µg/mL (≈ 1.32 µM), the “regrowth of the bacteria” value ([2]; after 48 h of incubation) was “regrowth of the bacteria did not occur” and the “time to undetectable level of viable bacteria” value ([2]; concentrations higher than the MIC) was no more than 24 h. The “reduction of viable bacteria” value ([2]; concentrations higher than the MIC, first 2 h) was 2 log, the MBC90/MIC90 [3] was 1 and the “MBC Range” value ([3]; >99.9% reduction within 48 h) was 0.03 to 0.5 µg/mL. The “MIC range” value ([3]; broth dilution) was 0.03 to 0.5 µg/mL, the MIC90 ([3]; Clostridioides difficile, broth dilution, read-out: MIC90) was 0.5 µg/mL (≈ 1.32 µM) and the MBC ([3]; Clostridioides difficile, read-out: MBC90) was 0.5 µg/mL (≈ 1.32 µM). For the same compound, the “Frequency of spontaneous resistance” value ([4]; 4× MIC) was <9.17 × 10^–9, the “Frequency of spontaneous resistance” value ([4]; 16× MIC) was <9.17 × 10^–9 and the “Frequency of spontaneous resistance” value ([4]; 64× MIC) was <9.17 × 10^–9. It also gave an MIC [5] of 0.016 µg/mL (≈ 0.0423 µM).
